Test results reported in ChEMBL document CHEMBL1201862, “PubChem BioAssay data set” (2004).
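Compound exposure: 48 hours, 5 concentrations, 96-well plates. Here, GI50 denotes the concentration required for 50% inhibition of growth.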 Active and inactive are the calls of the source. Cut-off read from the data, not from the text of the source: active = GI50 up to about 1.1 µM and inactive = higher.

Legend:
Assay in all cases: NCI-60 cell line screen, 48 h
CAKI-1 = test system: CAKI-1
EKVX = test system: EKVX
HCT-116 = test system: HCT-116
HOP-92 = test system: HOP-92
KM12 = test system: KM12
LOX IMVI = test system: LOX IMVI
M14 = test system: M14
MOLT-4 = test system: MOLT-4
NCI-H226 = test system: NCI-H226
OVCAR-5 = test system: OVCAR-5
RPMI-8226 = test system: RPMI-8226
RXF 393 = test system: RXF 393
SK-MEL-2 = test system: SK-MEL-2
UACC-257 = test system: UACC-257
UACC-62 = test system: UACC-62
UO-31 = test system: UO-31
SR = test system: SR

Measured: GI50

CSc1nc(NC2OCC(OC(C)=O)C(OC(C)=O)C2OC(C)=O)c(/N=C(\C)C(C)=O)c(=O)n1C (configuration not stated)
inactive: CAKI-1 > 100 µM | EKVX > 100 µM | HCT-116 > 100 µM | HOP-92 > 100 µM | KM12 > 100 µM | LOX IMVI > 100 µM | M14 > 100 µM | MOLT-4 > 100 µM | NCI-H226 > 100 µM | OVCAR-5 > 100 µM | RPMI-8226 > 100 µM | RXF 393 > 100 µM | SK-MEL-2 > 100 µM | UACC-257 > 100 µM | UACC-62 > 100 µM | UO-31 > 100 µM

O=C1OC(c2ccccc2)=N/C1=C\c1cc(Cl)ccc1Cl
inactive: EKVX > 100 µM | HCT-116 10.3 µM | HOP-92 > 100 µM | KM12 74.1 µM | M14 32.6 µM | MOLT-4 23 µM | OVCAR-5 > 100 µM | RPMI-8226 44.8 µM | RXF 393 > 100 µM | SK-MEL-2 > 100 µM | UACC-257 > 100 µM | UACC-62 > 100 µM | UO-31 > 100 µM

COc1ccc(C2N3CCCCC3[C@@H]3c4[nH]c5ccccc5c4CCN23)c(OC)c1 (some centres not stated)
inactive: CAKI-1 52 µM | EKVX > 100 µM | HCT-116 21.1 µM | HOP-92 49.9 µM | M14 16.8 µM | MOLT-4 21 µM | OVCAR-5 22.2 µM | RPMI-8226 15.8 µM | RXF 393 14.1 µM | SK-MEL-2 14.6 µM | UACC-257 26.2 µM | UACC-62 16.3 µM | UO-31 23.5 µM

Nc1c(C(=O)NC23CC4CC(CC(C4)C2)C3)[n+]([O-])c2ccccc2[n+]1[O-]
inactive: CAKI-1 > 100 µM | EKVX > 100 µM | HOP-92 90.4 µM | KM12 > 100 µM | LOX IMVI > 100 µM | M14 > 100 µM | MOLT-4 > 100 µM | NCI-H226 > 100 µM | OVCAR-5 > 100 µM | RPMI-8226 > 100 µM | SK-MEL-2 > 100 µM | UACC-257 > 100 µM | UACC-62 > 100 µM | UO-31 > 100 µM

COC(=O)C12CC3CC(C1)CC(C(=O)OC)(C3)C2
inactive: CAKI-1 > 100 µM | EKVX > 100 µM | HCT-116 > 100 µM | HOP-92 > 100 µM | KM12 > 100 µM | LOX IMVI > 100 µM | M14 > 100 µM | MOLT-4 > 100 µM | OVCAR-5 > 100 µM | RPMI-8226 > 100 µM | SR > 100 µM | UACC-257 > 100 µM | UACC-62 > 100 µM | UO-31 > 100 µM

O=C(CC1SC(Nc2ccccc2Cl)=NC1=O)Nc1ccc(Cl)cc1Cl (configuration not stated)
inactive: EKVX > 100 µM | HCT-116 > 100 µM | HOP-92 > 100 µM | KM12 > 100 µM | LOX IMVI > 100 µM | M14 > 100 µM | MOLT-4 > 100 µM | NCI-H226 > 100 µM | OVCAR-5 > 100 µM | RPMI-8226 54 µM | RXF 393 > 100 µM | SK-MEL-2 81.1 µM | UACC-257 > 100 µM | UACC-62 > 100 µM | UO-31 > 100 µM

CSc1ccc2c(cc1=O)C(NC(=O)c1ccc(C#N)cc1)CCc1cc(O)c(O)c(O)c1-2 (configuration not stated)
inactive: EKVX 22.4 µM | HCT-116 18.4 µM | KM12 33.7 µM | M14 30 µM | MOLT-4 22.5 µM | NCI-H226 26.2 µM | OVCAR-5 > 100 µM | SR 11.7 µM | UACC-257 12.2 µM | UACC-62 19.3 µM | UO-31 75.9 µM

CN1N=C(Nc2ccccc2)Sc2c1cnn(-c1ccccc1)c2=O
inactive: EKVX > 100 µM | HCT-116 > 100 µM | HOP-92 6.62 µM | KM12 > 100 µM | LOX IMVI 87.3 µM | M14 > 100 µM | MOLT-4 > 100 µM | RPMI-8226 93.3 µM | RXF 393 > 100 µM | SK-MEL-2 > 100 µM | UACC-257 > 100 µM | UACC-62 40 µM | UO-31 83.2 µM

Cc1cnc[nH]c1=O
inactive: CAKI-1 > 100 µM | EKVX > 100 µM | HCT-116 > 100 µM | KM12 > 100 µM | LOX IMVI > 100 µM | M14 > 100 µM | MOLT-4 > 100 µM | NCI-H226 > 100 µM | OVCAR-5 > 100 µM | RPMI-8226 > 100 µM | SK-MEL-2 > 100 µM | UACC-257 > 100 µM | UACC-62 > 100 µM | UO-31 > 100 µM

CCOC(=O)Cc1nc2ccc3c(c2nc1O)C(=O)c1ccccc1C3=O
inactive: CAKI-1 14.6 µM | EKVX 3.61 µM | HCT-116 31.5 µM | HOP-92 60.4 µM | KM12 14.7 µM | LOX IMVI 25.5 µM | M14 77.3 µM | MOLT-4 5.45 µM | NCI-H226 80.7 µM | OVCAR-5 > 100 µM | RPMI-8226 13.6 µM | RXF 393 8.09 µM | SK-MEL-2 76.4 µM | UACC-257 65.8 µM | UACC-62 34.5 µM | UO-31 35.4 µM

Cc1ccccc1C(=O)Oc1ccc(Oc2ccccc2)cc1
inactive: CAKI-1 72.9 µM | EKVX 73.5 µM | HCT-116 > 100 µM | KM12 > 100 µM | M14 > 100 µM | MOLT-4 67 µM | NCI-H226 > 100 µM | OVCAR-5 > 100 µM | RPMI-8226 > 100 µM | RXF 393 > 100 µM | SK-MEL-2 > 100 µM | UACC-257 > 100 µM | UACC-62 > 100 µM | UO-31 20.3 µM

Nc1cc2c3c(cccc3c1)C(=O)N(CCN1CCN(CCN3C(=O)c4cccc5cc(N)cc(c45)C3=O)CC1)C2=O
inactive: CAKI-1 > 100 µM | EKVX > 100 µM | HCT-116 67.6 µM | HOP-92 > 100 µM | KM12 > 100 µM | M14 98.9 µM | MOLT-4 25.3 µM | NCI-H226 31.5 µM | OVCAR-5 > 100 µM | RPMI-8226 > 100 µM | RXF 393 > 100 µM | SK-MEL-2 > 100 µM | UACC-257 > 100 µM | UACC-62 > 100 µM | UO-31 37.9 µM

C=CCn1cc(C(=O)NC(=O)NCCCCCOC(=O)CCCCCCCCCCC(=O)OCCCCCNC(=O)NC(=O)c2cn(CC=C)c(=O)n(C)c2=O)c(=O)n(C)c1=O
inactive: CAKI-1 > 100 µM | EKVX > 100 µM | HCT-116 > 100 µM | HOP-92 > 100 µM | KM12 > 100 µM | LOX IMVI > 100 µM | M14 > 100 µM | MOLT-4 > 100 µM | NCI-H226 > 100 µM | OVCAR-5 > 100 µM | RPMI-8226 > 100 µM | RXF 393 > 100 µM | SK-MEL-2 > 100 µM | UACC-257 > 100 µM | UACC-62 > 100 µM | UO-31 > 100 µM

COc1cccc(-c2cc(=O)c3cc(C)c(C)c(C(=O)O)c3o2)c1
inactive: EKVX > 100 µM | HCT-116 > 100 µM | HOP-92 > 100 µM | KM12 > 100 µM | LOX IMVI > 100 µM | M14 > 100 µM | MOLT-4 > 100 µM | OVCAR-5 > 100 µM | RPMI-8226 > 100 µM | SK-MEL-2 > 100 µM | UACC-257 > 100 µM | UACC-62 > 100 µM | UO-31 > 100 µM
